We go through three compounds from US20200093123A1, “INSECTICIDAL EMULSION” (EVOLVA SA, priority 2016, published 2020).

Read-outs that look alike come from different tables or passages of the source.

The test system of data set [1] is Aedes aegypti adult female mosquitoes. In words: Arm over cage contact repellency, geraniol/co-solvent formulations (Example 18). It counts as in vivo. Particulars: about 0.3 mL on collagen membrane aged one hour; 5 minute count; average of 4 replicates. The method, then:
Twenty five Aedes aegypti adult female mosquitoes were introduced into a 1 ft×1 ft×1 ft cage. The mosquitoes were starved for at least 2 hours before repellency testing. The test formulation or control substance (see “Treatments”) was applied at a rate of approximately 0.3 mL onto a dampened collagen membrane (2.5 inches by 6 inches) to mimic the effect of skin, and the membrane was allowed to age for one hour while resting on a damp cloth. An untreated, dampened collagen membrane was placed on a mesh opening at the top of the test cage, and a researcher's arm was suspended -1/4 inch above the membrane to act as an attractant. The numbers of landings and probings of the untreated membrane were counted during a 5 minute period, and these counts were used as the baseline level of activity for that specific replicate of mosquitoes. Immediately after the baseline count, an aged, treated membrane was placed on top of the cage, and the numbers of landings and probings of the treated membrane were counted during a 5 minute period for the same replicate of mosquitoes. […] Repellency was calculated as one minus the ratio of the average number of probings or landings using the treated membrane divided by the average number of probings or landings using the untreated membrane from the same cages over the same four replicates of mosquitoes. […]

The test system of data set [2] is yellow fever mosquitoes (Aedes aegypti) adults. In words: whole plant or invertebrate. It counts as in vivo. As to conditions: 1% w/v nootkatone in ethanol dried on filter paper, mortality reached at 24 hours. The method, then:
(§1) Method: Nootkatone was solubilized in ethanol to a concentration of 1% w/v. The nootkatone solution, or solvent (ethanol) alone as a negative control, was applied directly to filter paper using a micropipette, in an amount of 1 mL for a 9 cm filter paper disc. Filter papers were allowed to dry completely before being cut to the appropriate size prior to the start of the test. Treated and untreated filter papers were cut so that they covered the bottom of a suitable container for each test species (see Table No. 4, below). At each observation period, arthropods were classified as alive, knocked down (KD) or dead.
(§2) Observation Methods: • a. […] Definitions of “Alive”, “Knockdown (KD)”, and “Dead” are as defined above.

The subject of data set [3] is mosquito pupae. In words: Mosquito pupae killing (Example 8, previous testing). It counts as in vivo, Aedes aegypti or Anopheles quadrimaculatus. As to conditions: 0.03% nootkatone/1% ethanol; within 24 hours. The protocol: Pupae preparation. Eggs of Aedes aegypti or Anopheles quadrimaculatus were purchased from a commercial supplier. Eggs were hatched in sterile MilliQ water and fed with finely ground Tetramin® fish food until they developed into pupae.
Pupae experiments. Clean, glass 600 mL beakers were washed and thoroughly rinsed prior to use as test containers. On testing days, pupae were removed from dishes used to grow larvae. Replicates of 10 pupae each were randomly assigned to glass beakers in a volume of 100 mL of sterile MilliQ water, and a treatment (see “Treatments” below) is added. A minimum of three control replicates and 4 treated replicates were tested on more than one day. The beakers were then covered lightly with Kimwipes®, secured by rubber bands to prevent escape of adults. The beakers were observed after 24 hours, and the numbers of live pupae, dead pupae, live adults, and dead adults were recorded.
Treatments. An aliquot of 0.5-1 mL of formulations such as those used in Example 1 was added to each test beaker. Control beakers consist of 100 mL of sterile MilliQ water.

The next data set has as its system deer ticks. In words: Nootkatone residue on filter paper (Example 13). The format is in vivo, deer tick. Particulars: 1% w/v nootkatone in ethanol dried on filter paper; at 72 hours. The method, then: as §1, §2
In data set [4] the test system is Asian tiger mosquitoes (Aedes albopictus). Put plainly: Nootkatone residue on filter paper (Example 13). The format is in vivo. As to conditions: 24 h. The method, then: as §1, §2
Data set [5] has as its system common malaria mosquitoes (Anopheles quadrimaculatus). In words: Nootkatone residue on filter paper (Example 13). The format is in vivo. Particulars: 24 h. The method, then:
as §1, §2

In data set [6] the test system is southern house mosquitoes (Culex quinquefasciatus). Put plainly: Nootkatone residue on filter paper (Example 13). The format is in vivo. Particulars: 24 h. The method, then:
as §1, §2

Data set [7] has as its system mosquito pupae. In words: Prevention of adult emergence from pupae (Example 9, previous testing). The format is in vivo, Aedes aegypti or Anopheles quadrimaculatus. As to conditions: 0.015% nootkatone/0.5% ethanol (v/v) in water for 48 hours. An excerpt:
Pupae preparation. Eggs of Aedes aegypti or Anopheles quadrimaculatus were purchased from a commercial supplier. They were hatched in sterile MilliQ water and fed with finely ground TetraMin® fish food (fish meal, dried yeast, ground brown rice, shrimp meal, wheat gluten, feeding oat meal, fish oil, potato protein, dehulled soybean meal, soybean oil, algae meal, sorbitol, lecithin, monobasic calcium phosphate, ascorbic acid, yeast extract, inositol, niacin, L-ascorbyl-2-polyphosphate, riboflavin-5-phosphate, α-tocopherol-acetate, d-calcium pantothenate, thiamine mononitrate, pyridoxine hydrochloride, vitamin A palmitate, menadione sodium bisulfite complex, biotin, vitamin B12 supplement, cholcalciferol, manganese sulfate monohydrate, zinc sulfate monohydrate, ferrous sulfate monohydrate, cobalt acetate) until they developed into pupae.
Pupae experiments. Clean, glass 600 mL beakers were washed and thoroughly rinsed prior to use as test containers. On each of four testing days, pupae were removed from dishes used to grow larvae. Replicates of 10 pupae each were randomly assigned to glass beakers in a volume of 100 mL of sterile MilliQ water, and a treatment (see “Treatments” below) is added. The beakers are then covered lightly with Kimwipes® and secured by rubber bands to prevent escape of adults. […]
Treatments. […]

The subject of another data set is aphids. In words: Nootkatone residue on filter paper (Example 13). As to conditions: 1% w/v nootkatone in ethanol dried on filter paper; mortality reached at 24 hours. It counts as in vivo, aphid. The protocol: as §1, §2
A further data set has as its system termites. In words: Nootkatone residue on filter paper (Example 13). It counts as in vivo, termite. As to conditions: 1% w/v nootkatone in ethanol dried on filter paper; at 72 hours. The protocol: as §1, §2
In the next data set the test system is fire ants. In words: Nootkatone residue on filter paper (Example 13). The format is in vivo, fire ant. The method, then:
as §1, §2

Data set [8] relates to Anopheles gambiae Kisumu strain adults. It counts as in vivo. The method, then:
(§3) Method: Nootkatone was solubilized in acetone to a concentration of 1%, 0.607%, 0.368%, 0.224%, 0.136%, 0.082%, and 0.05%. 0.5 mL of solution was dispensed into a 5 cm diameter glass Petri dish for each replicate to be tested, using a fume hood and appropriate personal protective equipment. Liquid was dispensed to ensure that the entire base of the dish was covered with solution. Dishes were transferred to an orbital shaker set at a speed of 200 revolutions per minute. The dishes were shaken for 15 minutes to ensure even distribution on the surface of the plate. Control dishes were prepared in the same way using 0.5 mL of acetone without nootkatone. Dishes were allowed to dry for 4 hours before use. Dishes were stored at 4° C. until use. Groups of 10 adult female mosquitoes, 2-5 days old, were gently aspirated into a transfer pot system, and were then gently tapped out onto the surface of the treated or control Petri dishes. Although attempts are made to have groups of exactly 10 mosquitoes, group size could vary. Groups of more than 15 mosquitoes were excluded from testing, due to overcrowding. The opening to the dishes through which the mosquitoes were introduced was covered with parafilm to prevent escape. After 30 minutes of exposure to the Petri dishes, mosquitoes were transferred to paper cups for additional observation. They were supplied with 10% sucrose solution ad libitum. Three replicates, or 30 total adult female mosquitoes were tested for each concentration of nootkatone in acetone, and for the acetone-only controls. The mosquitoes tested were either the Aedes aegypti New Orleans strain, or Anopheles gambiae Kisumu strain.
as §2

Data set [9] concerns Aedes aegypti New Orleans strain adults. It counts as in vivo. The method, then: as §3, §2
The subject of the next data set is Aedes aegypti larvae. Put plainly: Duration of larvicidal protection in treated water (Example 7). The format is in vivo. As to conditions: 0.03% nootkatone/1% ethanol in water; larvae added 3-7 days after the water was treated; within 24 hours.
For another data set, the system named is biting midges. Put plainly: Nootkatone residue on filter paper (Example 13). It counts as in vivo, biting midge. Particulars: 1% w/v nootkatone in ethanol dried on filter paper; mortality reached at 24 hours. The protocol:
as §1, §2

For data set [10] the following is noted: partially soluble in water; cited from earlier work.
For data set [11] the following is noted: rats; cited from earlier work.

With `CCN(CC)C(=O)c1cccc(C)c1` [20% DEET in ethanol, N,N-Diethyl-meta-toluamide], in data set [1], the repellency against landings stood at 98% and the “repellency against probings (bites)” value came to 100%.
In the case of `C=C(C)[C@@H]1CCC2=CC(=O)C[C@@H](C)[C@]2(C)C1` [nootkatone], the mortality (in general, the percentage killed) at 1 % strength is 100% in data set [2], 98% in data set [4], 98% in data set [5] and 98% in data set [6]. Moreover, in the data set with mosquito pupae [3], the “pupae died, average” value is listed as 94%. The “pupae died, one experiment” value in the data set on mosquito pupae [3] was 93%. Further, in the data set on mosquito pupae [3], the “pupae died, second day of testing” value was 95%. The Mortality % worked out at 98% with deer ticks; 94% in the data set with aphids; 90% in the data set with termites; 100% in the data set with fire ants (1% w/v nootkatone in ethanol dried on filter paper, at 72 hours (table, no asterisk)); 100% with biting midges. In addition, in the data set on mosquito pupae [7], the “surviving adults eclosed from pupae” value is “no surviving adults”. In the data set on fire ants (1% nootkatone dried on filter paper, within 24 hours), this compound gave a killed of 100%. For the same compound, in data set [8] (residue of 0.082% nootkatone, 24 hours after treatment), the adults killed is recorded as 50%. The adults knocked down in data set [8] (residue of 0.5 mL 0.082% nootkatone in acetone on 5 cm glass dish, within 30 minutes) is 41%; in data set [9] (residue of 0.5 mL 0.136% nootkatone in acetone on 5 cm glass dish, within 30 minutes), 47%. Moreover, the mortality is listed as 100% in [8] (residue of 0.607% nootkatone, 24 hours after treatment); 100% in [8] (residue of 1% nootkatone, 24 hours after treatment); 89% in data set [9] (residue of 1% nootkatone in acetone, 30 minutes exposure, 24 hours after treatment). Besides, the “nootkatone concentration required to obtain significant mortality” value in [9] (residue on glass dish, 30 minutes exposure, 24 hours after treatment) is on record as 0.224%. Besides, the larvae killed in the data set on Aedes aegypti larvae came to 100%.
In the case of `OCc1ccccc1` [benzyl alcohol], the solubility in water in data set [10] is 4 g/100 ml. For the same compound, the LD50 (commonly the dose expected to kill half of the subjects tested) in [11] was 1200 mg/kg.
